Data published in patent US20230271933A1, “HETEROCYCLIC IMMUNOMODULATOR” (Beijing Innocare Pharma Tech Co., Ltd., priority 2020, published 2023).

Molecular target: hERG potassium ion channel (Homo sapiens, UniProt Q12809)
Experiment: Blockade of the hERG potassium ion channel (whole cell patch clamp)
Format: cell-based
Conditions: HEK293 cells stably overexpressing hERG, pH 7.4, tail current, read-out: The percentage of the inhibition to the hERG current at the solubility of 3 μM (n = 2)
Protocol: The effect of the compound of the present invention on possible arrhythmias was assessed by determining the blockade of the hERG potassium ion channel.
The experiment method was summarized as follows: • Extracellular fluid: 140 mM NaCl, 3.5 mM KCl, 1 mM MgCl2, 2 mM CaCl2, 10 mM D-glucose, 10 mM HEPES, 1.25 mM NaH2PO4, pH=7.4. • Electrode internal solution: 20 mM KCl, 115 mM K-aspartate, 1 mM MgCl2, 5 mM EGTA, 10 mM HEPES, 2 mM Na2-ATP, pH=7.2. • Compound solution: the compound to be tested was dissolved in DMSO and prepared into a stock solution having a concentration of 10 mM, then diluted into the concentration of 3 mM with DMSO, and then diluted into a solution having a concentration of 3 μM with the extracellular solution for subsequent use. • Cell culture: the HEK293 cell line with the stable hERG potassium channel overexpression (Creacell, Cat. No. A-0320) was cultured in a DMEM medium (Gibco, Cat. No. 11995-065) containing […] (Gibco, Cat. No. 1428478) and 0.8 mg/mL G418 (Amresco, Cat. No. E859-5G) at the culture temperature of 37° C. under the carbon dioxide concentration of […]. The spent medium was removed and the cells were washed once with PBS (Gibco, Cat. No. 1009-141). Then 1 mL TrypLE™ Express solution (Gibco, Cat. No. 12604021) was added and the cells were incubated at 37° C. […]. When the cells were detached from the bottom of the dish, 5 mL of complete medium preheated at 37° C. was added. The cell suspension was transferred to a sterile centrifuge tube and centrifuged at 1000 rpm for 5 minutes before cell collection. Cells were inoculated in 6 cm cell culture dishes at the cell inoculation volume of 2.5*10^5 per dish (final volume: 5 mL). Before the patch clamp detection experiment, 3*10^3 cells were plated on the cover slips, cultured in 24-well plates (final volume: 500 μL), and detected 18 hours later. • Voltage stimulation protocol by recording the whole-cell hERG potassium current with the whole cell patch clamp: after forming a whole-cell seal, the cell membrane voltage was clamped at −80 mV. The clamping voltage was depolarized from −80 mV to −50 mV and maintained for 0.5 seconds (as leakage current detection), then stepped to 30 mV and maintained for 2.5 seconds, then quickly returned to −50 mV and maintained for 4 seconds to excite the hERG channel tail current (Peak tail current), the hERG potassium current was recorded every other 10 seconds. Experiment data were collected with EPC-10 amplifier (HEKA) and stored in PatchMaster (HEKA v2x73) software. • Determination: A capillary glass tube (Sutter Instruments) was drawn into a recording electrode with a microelectrode drawing instrument (Sutter Instruments). The cell-loaded cover slip was removed from the 24-well plate placed in the incubator and then placed under an inverted microscope. […] In the whole-cell recording mode, the slow capacitance compensation was performed and the membrane capacitance and the series resistance were recorded, during which the leakage compensation was not applied. After the hERG tail current recorded with the whole cell was stabilized for 3-5 minutes, 8 mL of the compound-free extracellular fluid (blank control) and 8 mL of 3 μM solution of the compound to be tested were sequentially flowed through the recording bath with the gravity perfusion to act on the cells for 5 minutes (or to the current stabilization). The current detected for each cell in the compound-free extracellular fluid was served as its own control. […]

hERG potassium ion channel, sequence (Q12809 whole entry): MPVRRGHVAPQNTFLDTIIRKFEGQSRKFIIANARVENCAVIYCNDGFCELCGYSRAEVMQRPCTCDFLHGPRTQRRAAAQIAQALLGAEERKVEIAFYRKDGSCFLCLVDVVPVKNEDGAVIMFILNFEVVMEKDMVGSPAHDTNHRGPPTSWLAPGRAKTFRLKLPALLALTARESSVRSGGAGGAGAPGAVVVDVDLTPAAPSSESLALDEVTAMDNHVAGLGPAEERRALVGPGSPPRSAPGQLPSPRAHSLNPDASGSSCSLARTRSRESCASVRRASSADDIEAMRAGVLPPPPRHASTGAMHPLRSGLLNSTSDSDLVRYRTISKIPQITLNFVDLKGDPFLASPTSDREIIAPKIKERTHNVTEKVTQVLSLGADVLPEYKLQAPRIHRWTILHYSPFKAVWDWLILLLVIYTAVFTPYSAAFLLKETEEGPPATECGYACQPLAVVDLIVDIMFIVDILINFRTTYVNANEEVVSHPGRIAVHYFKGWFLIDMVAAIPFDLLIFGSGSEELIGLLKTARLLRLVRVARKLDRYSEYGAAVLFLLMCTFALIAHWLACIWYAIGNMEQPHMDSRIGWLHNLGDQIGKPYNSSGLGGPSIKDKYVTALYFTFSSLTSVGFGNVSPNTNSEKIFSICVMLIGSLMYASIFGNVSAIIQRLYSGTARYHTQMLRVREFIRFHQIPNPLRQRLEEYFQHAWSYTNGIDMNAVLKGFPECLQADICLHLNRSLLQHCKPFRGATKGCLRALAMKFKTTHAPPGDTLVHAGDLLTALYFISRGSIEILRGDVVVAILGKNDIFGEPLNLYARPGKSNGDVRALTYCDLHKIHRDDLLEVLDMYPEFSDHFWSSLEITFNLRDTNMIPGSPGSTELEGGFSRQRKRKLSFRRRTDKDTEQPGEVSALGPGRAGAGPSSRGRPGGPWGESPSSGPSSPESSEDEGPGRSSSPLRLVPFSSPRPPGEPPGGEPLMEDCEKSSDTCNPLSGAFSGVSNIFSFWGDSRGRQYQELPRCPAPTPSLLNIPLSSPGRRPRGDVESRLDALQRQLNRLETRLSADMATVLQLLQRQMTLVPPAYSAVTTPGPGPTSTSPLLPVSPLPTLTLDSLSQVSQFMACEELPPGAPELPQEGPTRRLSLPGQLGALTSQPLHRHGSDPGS

N#Cc1ccc(N2CCN(Cc3ccc(COc4cccc5c4CN([C@H]4CCC(=O)NC4=O)C5=O)cc3)CC2)c(F)c1 [CC-92480, reference compound]
inhibition at 5 min, 3 µM: 76%
